The values that follow come from patent US12319676B2, “Substituted amide compounds useful as farnesoid X receptor modulators” (BRISTOL-MYERS SQUIBB COMPANY, priority 2019, dated 2025).

One may read the EC50 as the concentration that produces a half-maximal response. Higher therefore signals lower potency in that assay.

The target in this assay is T1, human FXR (Homo sapiens, UniProt Q96RI1).
T1 construct: expressed in transfected cells; host or cells: HEK293 cells stably carrying a 5xGal4 response element-luciferase reporter, transiently transfected with pcDNA3.1-Gal4-FXR
T1 sequence (Q96RI1 262-486 limits assumed): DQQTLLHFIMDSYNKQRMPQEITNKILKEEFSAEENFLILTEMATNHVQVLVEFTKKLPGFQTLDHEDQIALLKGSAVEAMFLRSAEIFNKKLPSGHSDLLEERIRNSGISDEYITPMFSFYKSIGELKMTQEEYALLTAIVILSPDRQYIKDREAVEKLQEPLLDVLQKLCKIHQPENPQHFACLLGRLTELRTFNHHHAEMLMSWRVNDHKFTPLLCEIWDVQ
Nature of the assay: transient human FXR/Gal4-luciferase reporter assay. The format is cell-based. The note with it: Gal4-hFXR fusion construct, luciferase reporter in HEK293 cells; overnight incubation; response as percentage of 8 μM GW-4064 control. The method, boiled down:
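HEK293 cells stably carrying a 5×Gal4-response-element firefly luciferase reporter were transiently transfected with a Gal4 DBD-human FXR LBD fusion, then treated overnight with compounds at 37 °C. Steady-Glo luminescence, minus DMSO background, was expressed as percent of the response to 8 μM GW-4064.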
For the compound `CC(F)(F)c1ccc(C23CCC(CN(c4cccc(Nc5ccc(C6(C#N)CC6)cc5)c4)C(=O)[C@H]4C[C@](O)(C(F)(F)F)C4)(CC2)CC3)nc1` [Example 93, (1S,3S)—N-(3-((4-(1-cyanocyclopropyl)phenyl)amino)phenyl)-N-((4-(5-(1,1-difluoroethyl)pyridin-2-yl)bicyclo[2.2.2]octan-1-yl)methyl)-3-hydroxy-3-(trifluoromethyl)cyclobutane-1-carboxamide], the EC50 turned out to be 1420 nM.
In the case of `CC(C)(C)c1noc(C23CCC(CN(C(=O)C45CC(F)(C4)C5)c4cncc(C#N)c4)(CC2)CC3)n1` [Example 94, N-((4-(3-(tert-butyl)-1,2,4-oxadiazol-5-yl)bicyclo[2.2.2]octan-1-yl)methyl)-N-(5-cyanopyridin-3-yl)-3-fluorobicyclo[1.1.1]pentane-1-carboxamide] it was 1320 nM; in that of `CC(C)(F)c1nc(C23CCC(CN(C(=O)N[C@H]4CC[C@](C)(O)CC4)c4cccc(C#N)c4)(CC2)CC3)no1` [Example 95, 1-(3-cyanophenyl)-1-((4-(5-(2-fluoropropan-2-yl)-1,2,4-oxadiazol-3-yl)bicyclo[2.2.2]octan-1-yl)methyl)-3-((1R,4R)-4-hydroxy-4-methylcyclohexyl)urea], 181 nM; in that of `CC(C)(CO)CNC(=O)N(CC12CCC(c3noc(C(C)(C)F)n3)(CC1)CC2)c1cccc(C#N)c1` [Example 97, 1-(3-cyanophenyl)-1-((4-(5-(2-fluoropropan-2-yl)-1,2,4-oxadiazol-3-yl)bicyclo[2.2.2]octan-1-yl)methyl)-3-(3-hydroxy-2,2-dimethylpropyl)urea], 1000 nM.
`CC(F)(F)c1nc(C23CCC(CN(C(=O)N[C@H]4CC[C@H](O)CC4)c4cccc(C#N)c4)(CC2)CC3)no1` [Example 98, 1-(3-cyanophenyl)-1-((4-(5-(1,1-difluoroethyl)-1,2,4-oxadiazol-3-yl)bicyclo[2.2.2]octan-1-yl)methyl)-3-((1R,4R)-4-hydroxycyclohexyl)urea] registered an EC50 of 230 nM.
The result for `CC(F)(F)c1nc(C23CCC(CN(C(=O)N[C@H]4CC[C@](C)(O)CC4)c4cccc(C#N)c4)(CC2)CC3)no1` [Example 99, 1-(3-cyanophenyl)-1-((4-(5-(1,1-difluoroethyl)-1,2,4-oxadiazol-3-yl)bicyclo[2.2.2]octan-1-yl)methyl)-3-((1R,4R)-4-hydroxy-4-methylcyclohexyl)urea] reads 391 nM.
`CC(C)(CO)CNC(=O)N(CC12CCC(c3noc(C(C)(F)F)n3)(CC1)CC2)c1cccc(C#N)c1` [Example 100, 1-(3-cyanophenyl)-1-((4-(5-(1,1-difluoroethyl)-1,2,4-oxadiazol-3-yl)bicyclo[2.2.2]octan-1-yl)methyl)-3-(3-hydroxy-2,2-dimethylpropyl)urea] registered an EC50 of 1480 nM.
With `CC(C)(F)c1nc(C23CCC(CN(C(=O)N[C@H]4CC[C@H](O)CC4)c4ccc(F)c(Br)c4)(CC2)CC3)no1` [Example 101, 1-(3-bromo-4-fluorophenyl)-1-((4-(5-(2-fluoropropan-2-yl)-1,2,4-oxadiazol-3-yl)bicyclo[2.2.2]octan-1-yl)methyl)-3-((1R,4R)-4-hydroxycyclohexyl)urea], the concentration for a half-maximal effect (EC50) worked out at 1520 nM.
The result for `CC(C)(C)c1nc(C23CCC(CN(C(=O)C45CC(F)(C4)C5)c4cccc(Nc5ncc(OC(F)F)cn5)c4)(CC2)CC3)no1` [Example 102, N-((4-(5-(tert-butyl)-1,2,4-oxadiazol-3-yl)bicyclo[2.2.2]octan-1-yl)methyl)-N-(3-((5-(difluoromethoxy)pyrimidin-2-yl)amino)phenyl)-3-fluorobicyclo[1.1.1]pentane-1-carboxamide] reads 183 nM; that for `CC(C)(C)c1nc(C23CCC(CN(C(=O)C45CC(F)(C4)C5)c4cccc(Nc5cnc(C6CC6)nc5)c4)(CC2)CC3)no1` [Example 103, N-((4-(5-(tert-butyl)-1,2,4-oxadiazol-3-yl)bicyclo[2.2.2]octan-1-yl)methyl)-N-(3-((2-cyclopropylpyrimidin-5-yl)amino)phenyl)-3-fluorobicyclo[1.1.1]pentane-1-carboxamide], 187 nM; that for `CC(C)(C)c1nc(C23CCC(CN(C(=O)C45CC(F)(C4)C5)c4cccc(Nc5ccc(OC(F)F)cn5)c4)(CC2)CC3)no1` [Example 104, N-((4-(5-(tert-butyl)-1,2,4-oxadiazol-3-yl)bicyclo[2.2.2]octan-1-yl)methyl)-N-(3-((5-(difluoromethoxy)pyridin-2-yl)amino)phenyl)-3-fluorobicyclo[1.1.1]pentane-1-carboxamide], 221 nM.
As to `O=C(N(CC12CCC(c3ccc(C(F)(F)F)cn3)(CC1)CC2)c1cccc(Nc2ncc(C3CC3)cn2)c1)C12CC(F)(C1)C2` [Example 105, N-(3-((5-cyclopropylpyrimidin-2-yl)amino)phenyl)-3-fluoro-N-((4-(5-(trifluoromethyl)pyridin-2-yl)bicyclo[2.2.2]octan-1-yl)methyl)bicyclo[1.1.1]pentane-1-carboxamide], a half-maximal response (EC50) required 292 nM. The EC50 values of the last two compounds are within 1.5-fold of each other.
The result for `O=C(N(CC12CCC(c3ccc(C(F)(F)F)cn3)(CC1)CC2)c1cccc(Nc2ncc(OC(F)F)cn2)c1)C12CC(F)(C1)C2` [Example 106, N-(3-((5-(difluoromethoxy)pyrimidin-2-yl)amino)phenyl)-3-fluoro-N-((4-(5-(trifluoromethyl)pyridin-2-yl)bicyclo[.2.2.2]octan-1-yl)methyl)bicyclo[1.1.1]pentane-1-carboxamide] reads 132 nM.
In the case of `O=C(N(CC12CCC(c3ccc(C(F)(F)F)cn3)(CC1)CC2)c1cccc(Nc2ccc(OC(F)F)cc2)c1)C12CC(F)(C1)C2` [Example 107, N-(3-((4-(difluoromethoxy)phenyl)amino)phenyl)-3-fluoro-N-((4-(5-(trifluoromethyl)pyridin-2-yl)bicyclo[2.2.2]octan-1-yl)methyl)bicyclo[1.1.1]pentane-1-carboxamide] it was 484 nM.
In turn, `O=C(N(CC12CCC(c3ccc(C(F)(F)F)cn3)(CC1)CC2)c1cccc(Nc2ccc(OC(F)F)cn2)c1)C12CC(F)(C1)C2` [Example 108, N-(3-((5-(difluoromethoxy)pyridin-2-yl)amino)phenyl)-3-fluoro-N-((4-(5-(trifluoromethyl)pyridin-2-yl)bicyclo[2.2.2]octan-1-yl)methyl)bicyclo[1.1.1]pentane-1-carboxamide] came in with an EC50 of 629 nM. The EC50 values of the last two compounds are within 1.5-fold of each other.
In turn, `O=C(N(CC12CCC(c3ccc(C(F)(F)F)cn3)(CC1)CC2)c1cccc(Nc2ccc(C3CC3)cn2)c1)C12CC(F)(C1)C2` [Example 109, N-(3-((5-cyclopropylpyridin-2-yl)amino)phenyl)-3-fluoro-N-((4-(5-(trifluoromethyl)pyridin-2-yl)bicyclo[2..2.2]octan-1-yl)methyl)bicyclo[1.1.1]pentane-1-carboxamide] came in with an EC50 of 292 nM.
Regarding `CC(C)(C)c1nc(C23CCC(CN(C(=O)C45CC(F)(C4)C5)c4cccc(O)c4)(CC2)CC3)no1` [Example 110, N-((4-(5-(tert-butyl)-1,2,4-oxadiazol-3-yl)bicyclo[2.2.2]octan-1-yl)methyl)-3-fluoro-N-(3-hydroxyphenyl)bicyclo[1.1.1]pentane-1-carboxamide], a half-maximal effect (EC50) was put at 65 nM. Against the preceding compound, the EC50 is about 4.5-fold lower.
